Data set [1] relates to Human immunodeficiency virus 1. As to the kind of experiment: Antiviral activity against pseudo HIV1 infected in human 293T cells after 2 days by luciferase reporter gene assay. Type of data set: functional, organism-based. Conditions: Human immunodeficiency virus 1, HEK-293T, 48 h.
Data set [2] in a line: Therapeutic index, ratio of CC50 for human 293T cells to EC50 for HIV1. The format is cell-based. Particulars: read-out: Ratio CC50/EC50.
Data set [3] deals with Human immunodeficiency virus 1. As to the kind of experiment: Ratio of EC50 for pseudo HIV1 infected in human 293T cells in presence of human serum albumin to EC50 for pseudo HIV1 infected in human 293T cells. Type of data set: functional.
The target of data set [4] is Human immunodeficiency virus type 1 integrase (Human immunodeficiency virus 1, UniProt Q7ZJM1). As to the kind of experiment: Inhibition of HIV1 integrase strand transfer by biochemical assay.
Data set [5] has as its system Human immunodeficiency virus 1. As to the kind of experiment: Antiviral activity against pseudo HIV1 infected in human 293T cells after 2 days by luciferase reporter gene assay in presence of human serum albumin. Type of data set: functional, organism-based. Conditions: Human immunodeficiency virus 1, HEK-293T, 48 h.
Data set [6] can be described thus: Selectivity index, ratio of CC50 for human MT4 cells to EC50 for HIV13B. Type of data set: toxicity, cell-based. Conditions: read-out: Ratio CC50/EC50.
Data set [7] deals with Human immunodeficiency virus 1. As to the kind of experiment: Antiviral activity against HIV1 3B infected in human MT4 cells assessed as inhibition of viral replication after 4-5 days by bioluminescence assay. Type of data set: functional, organism-based. Conditions: Human immunodeficiency virus 1, 3B.
In data set [8] the test system is Human immunodeficiency virus 1. As to the kind of experiment: Antiviral activity against HIV1 Ba-L infected in human PBMC cells assessed as inhibition of viral replication after 7 days by [methyl-3H]dTTP incorporation assay. The format is functional, organism-based. Particulars: Human immunodeficiency virus 1, Ba-L, 168 h.

Chain of Human immunodeficiency virus type 1 integrase (Q7ZJM1 whole entry): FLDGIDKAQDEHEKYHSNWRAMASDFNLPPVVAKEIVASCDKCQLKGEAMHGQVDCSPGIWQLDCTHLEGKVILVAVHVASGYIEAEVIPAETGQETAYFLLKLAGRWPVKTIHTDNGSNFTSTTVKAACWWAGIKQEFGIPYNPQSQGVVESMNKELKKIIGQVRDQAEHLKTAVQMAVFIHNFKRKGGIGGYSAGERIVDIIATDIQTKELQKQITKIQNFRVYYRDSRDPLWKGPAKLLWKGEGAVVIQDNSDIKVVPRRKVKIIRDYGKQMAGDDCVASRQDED

Usually EC50 stands for the concentration needed to bring the measured effect to its halfway point. One may read the IC50 as the midpoint of a concentration-inhibition curve. For `CN(C)C(=O)Cn1c(=O)c(C(=O)NCc2ccc(F)cc2)c(O)c2ncc(Cc3ccc(F)cc3)cc21`, the EC50 is 10 nM in data set [1] and 130 nM in data set [5]. For the same compound, in data set [2], the selectivity ratio worked out at 1150. Besides, the “Ratio EC50” value in data set [3] came out at 10. This compound also yielded an IC50 in data set [4] of 4 nM.

On to `O=C(NCc1ccc(F)cc1C(F)(F)F)c1c(O)c2ncc(Cc3ccccc3)cc2[nH]c1=O`, for which the EC50 in data set [1] was found to be 39 nM; in data set [5] it was 480 nM. The selectivity ratio in data set [2] was 90. In data set [4], this compound returned an IC50 of 32 nM.

For the compound `COc1ccc(CNC(=O)c2c(O)c3ncc(Cc4ccc(F)cc4)cc3[nH]c2=O)cc1`, the figures for the EC50 in data set [1] and in data set [5] were 7 nM and 440 nM, respectively. The selectivity ratio in data set [2] was 1730. For the same compound, the IC50 in data set [4] is 7 nM.

Consider `COc1cccc(CNC(=O)c2c(O)c3ncc(Cc4ccc(F)cc4)cc3[nH]c2=O)c1`, for which the results for the EC50 in data set [1] and in data set [5] were 13 nM and 460 nM, respectively. The selectivity ratio in data set [2] was determined as 1050. The compound also came in with an IC50 in data set [4] of 10 nM.

In the case of `COc1ccccc1CNC(=O)c1c(O)c2ncc(Cc3ccc(F)cc3)cc2[nH]c1=O`, the EC50 in data set [1] is 9 nM; in data set [5] it was 330 nM. The selectivity ratio in data set [2] worked out at 1540. The same compound yielded an IC50 in data set [4] of 6 nM.

For the compound `COc1ccc(CNC(=O)c2c(O)c3ncc(Cc4ccc(F)cc4)cc3[nH]c2=O)cc1OC`, the EC50 in data set [1] stood at 21 nM; in data set [5], 1100 nM. For the same compound, the selectivity ratio in data set [2] was 680. The compound further came in with an IC50 in data set [4] of 8 nM.

Consider `CC(NC(=O)c1c(O)c2ncc(Cc3ccccc3)cc2[nH]c1=O)c1ccccc1` (centres undefined), for which the EC50 in data set [1] came to 65 nM; in data set [5], 360 nM. In data set [2], the selectivity ratio stood at 79. The same compound returned an IC50 in data set [4] of 20 nM.

`Cn1c(=O)c(C(=O)NCc2ccc(F)cc2)c(O)c2ncc(Cc3ccc(F)cc3)cc21`: the values for the EC50 in data set [1], in data set [7] and in data set [5] were 8 nM, 66 nM and 530 nM, respectively. Moreover, the values for the selectivity ratio in data set [2] and in data set [6] were 1710 and 453, respectively. This compound also returned an IC50 in data set [4] of 17 nM.

Consider `CCCn1c(=O)c(C(=O)NCc2ccc(F)cc2)c(O)c2ncc(Cc3ccccc3)cc21`, for which the EC50 in data set [1] is 70 nM; in data set [5] it was 640 nM. The selectivity ratio in data set [2] was found to be 99. In data set [4], this compound yielded an IC50 of 18 nM.

Turning to `O=C(NCc1ccc(F)cc1)c1c(O)c2ncc(Cc3ccccc3)cc2n(CC2CC2)c1=O`, the values for the EC50 in data set [1] and in data set [5] were 30 nM and 730 nM, respectively. For the same compound, in data set [2], the selectivity ratio was found to be 465. Besides, half-maximal inhibition in data set [4] (IC50) required 34 nM.

With `Nc1ccc(Cn2c(=O)c(C(=O)NCc3ccc(F)cc3)c(O)c3ncc(Cc4ccccc4)cc32)cc1`, the values for the EC50 in data set [1] and in data set [5] were 12 nM and 140 nM, respectively. Moreover, the selectivity ratio in data set [2] was 1130. Also, the “Ratio EC50” value in data set [3] came to 12. This compound also had an IC50 in data set [4] of 28 nM.

Take `CS(=O)(=O)c1ccc(Cn2c(=O)c(C(=O)NCc3ccc(F)cc3)c(O)c3ncc(Cc4ccccc4)cc32)cc1`: the EC50 was 9 nM in data set [1] and 230 nM in data set [5]. Moreover, in data set [2], the selectivity ratio stood at 1430. Besides, in data set [3], the “Ratio EC50” value turned out to be 25. The same compound came in with an IC50 in data set [4] of 28 nM.

For `O=C(NCc1ccc(F)cc1)c1c(O)c2ncc(Cc3ccccc3)cc2n(CCN2CCCC2=O)c1=O`, the results for the EC50 in data set [1] and in data set [5] were 8 nM and 290 nM, respectively. Also, the selectivity ratio in data set [2] turned out to be 1770. The concentration for half-maximal inhibition (IC50) in data set [4] stood at 32 nM.

For `O=C(NCc1ccc(F)cc1)c1c(O)c2ncc(Cc3ccc(F)cc3)cc2n(CCN2CCCC2=O)c1=O`, the EC50 in data set [1] was 3 nM; in data set [8] it was 11 nM; in data set [7], 20 nM; in data set [5], 140 nM. Further, the selectivity ratio in data set [2] was 5600; in data set [6] it was over 400. In addition, half-maximal inhibition in data set [4] (IC50) required 14 nM.

Consider `O=C(NCc1ccc(F)cc1)c1c(O)c2ncc(Cc3ccc(F)cc3)cc2n(CC(=O)N2CCCCC2)c1=O`, for which the EC50 turned out to be 26 nM in data set [1] and 220 nM in data set [5]. For the same compound, the selectivity ratio in data set [2] is 171. Also, the “Ratio EC50” value in data set [3] is 10. The same compound registered an IC50 in data set [4] of 19 nM.

For the compound `O=C(NCc1ccc(F)cc1)c1c(O)c2ncc(Cc3ccc(F)cc3)cc2n(CC(=O)N2CCOCC2)c1=O`, the values for the EC50 in data set [1], in data set [7] and in data set [5] were 3 nM, 15 nM and 45 nM, respectively. The selectivity ratio in data set [2] amounted to 2880; in data set [6] it was 347. This compound returned an IC50 in data set [4] of 8 nM.

The compound `O=C(NCc1ccc(F)cc1)c1c(O)c2ncccc2[nH]c1=O` displayed an EC50 in data set [1] of 110 nM. In addition, in data set [2], the selectivity ratio turned out to be 87. Further, it took 13 nM to reach half-maximal inhibition in data set [4] (IC50).

As to `CC(C)n1c(=O)c(C(=O)NCc2ccc(F)cc2)c(O)c2ncccc21`, the response in data set [1] was half-maximal at 400 nM (EC50). In addition, in data set [2], the selectivity ratio was determined as 30. In data set [4], half-maximal inhibition (IC50) required 1 nM.

As for `O=C(NCc1ccc(F)cc1)c1c(O)c2ncccc2n(C2CCCC2)c1=O`, the EC50 in data set [1] was determined as 110 nM; in data set [5], 1540 nM. Moreover, the selectivity ratio in data set [2] is 79. In data set [3], the “Ratio EC50” value turned out to be 14. In addition, it took 6 nM to reach half-maximal inhibition in data set [4] (IC50).

As to `O=C(NCc1ccc(F)cc1)c1c(O)c2ncc(Cc3ccccc3)cc2[nH]c1=O`, the EC50 in data set [1] came to 19 nM; in data set [7], 37 nM; in data set [5], 430 nM. Besides, the selectivity ratio in data set [2] was determined as 711; in data set [6], 108. In data set [4], the IC50 was 13 nM.

On to `O=C(NCc1ccc(F)cc1)c1c(O)c2ncc(Cc3ccc(F)cc3)cc2[nH]c1=O`, for which the values for the EC50 in data set [1] and in data set [5] were 8 nM and 280 nM, respectively. Also, in data set [2], the selectivity ratio was 1730. This compound also returned an IC50 in data set [4] of 6 nM.

For the compound `O=C(NCc1ccc(F)cc1Cl)c1c(O)c2ncc(Cc3ccccc3)cc2[nH]c1=O`, in data set [1], the 50% effective concentration (EC50) was determined as 120 nM. In addition, in data set [2], the selectivity ratio stood at 117. This compound also gave an IC50 in data set [4] of 35 nM.

(Values after ChEMBL document CHEMBL1914387, “Combining symmetry elements results in potent naphthyridinone (NTD) HIV-1 integrase inhibitors” (Bioorg Med Chem Lett, 2011).)
